Biological target: T1, human glucagon receptor (Homo sapiens, UniProt P47871)
T1 construct: expressed in transfected cells; host or cells: BHK (baby hamster kidney) cells
Assay: Glucagon Binding Assay (III)
Details: BHK cell membranes, WGA SPA beads, 125I-glucagon; read-out: Glu Bd Assay (III) IC50
Outline: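 Membranes from BHK cells transfected with the human receptor, prepared at 4 °C, were used in a WGA-bead scintillation proximity binding format. Plates were shaken for 4 hours, left to settle 8–48 hours and then counted. Non-specific binding was defined with 500 nM glucagon.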

T1 sequence (P47871 26-477): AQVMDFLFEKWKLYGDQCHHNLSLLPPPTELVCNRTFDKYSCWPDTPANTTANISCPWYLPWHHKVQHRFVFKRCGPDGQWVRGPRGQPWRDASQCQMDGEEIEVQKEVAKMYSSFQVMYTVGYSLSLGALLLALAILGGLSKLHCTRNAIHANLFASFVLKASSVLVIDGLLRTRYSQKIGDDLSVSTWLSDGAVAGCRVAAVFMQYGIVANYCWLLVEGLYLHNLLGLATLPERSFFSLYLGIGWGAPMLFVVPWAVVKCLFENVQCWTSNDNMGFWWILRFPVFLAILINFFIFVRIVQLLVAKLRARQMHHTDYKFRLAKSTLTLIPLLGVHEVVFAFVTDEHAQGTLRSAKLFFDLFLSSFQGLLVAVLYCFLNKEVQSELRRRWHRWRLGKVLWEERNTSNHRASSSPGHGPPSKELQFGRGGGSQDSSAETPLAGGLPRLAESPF

SMILES	IC50
O=C(Nc1nn[nH]n1)c1ccc(CN(CC(c2ccccc2)c2ccccc2)C(=O)/C=C/c2c(Cl)cccc2Cl)cc1 [Example 478, 4-{[[3-(2,6-Dichlorophenyl)acryloyl]-(2,2-diphenylethyl)amino]methyl}-N-(2H-tetrazol-5-yl)benzamide]	2940 nM
CCCCc1ccc(N(Cc2ccc(C(=O)NCCC(=O)O)cc2)C(=O)Nc2ccc(OC(F)(F)F)cc2)c(C)c1 [Example 440, 3-{4-[1-(4-Butyl-2-methylphenyl)-3-(4-trifluoromethoxyphenyl)ureidomethyl]benzoylamino}propionic acid]	509 nM
CCCCC(CC)CN(Cc1ccc(C(=O)NCCC(=O)O)cc1)C(=O)Nc1ccc(Cl)cc1 (stereo not drawn) [Example 38, 3-{4-[3-(4-Chlorophenyl)-1-(2-ethylhexyl)ureidomethyl]benzoylamino}propionic acid]	928 nM
O=C(O)CCNC(=O)c1ccc(CN(CC(c2ccccc2)c2ccccc2)C(=O)/C=C/c2c(Cl)cccc2Cl)cc1 [Example 505, 3-(4-{[[3-(2,6-Dichlorophenyl)acryloyl]-(2,2-diphenylethyl)amino]methyl}benzoylamino)propionic acid]	449 nM
CS(=O)(=O)c1cc(NC(=O)N(Cc2ccc(C(=O)Nc3nn[nH]n3)cc2)c2ccc(C3CCCCC3)cc2)cc(S(C)(=O)=O)c1 [Example 321, 4-[3-(3,5-Bis(methylsulfonyl)phenyl)-1-(4-cyclohexylphenyl)ureidomethyl]-N-(2H-tetrazol-5-yl)benzamide]	960 nM
CC(C)(C)C1CCC(N(Cc2ccc(C(=O)Nc3nn[nH]n3)cc2)C(=O)c2cccc3ccccc23)CC1 (stereo not drawn) [Example 515, 4-{[(4-tert-Butylcyclohexyl)-(naphth-1-ylcarbonyl)amino]methyl}-N-(2H-tetrazol-5-yl)benzamide]	450 nM
O=C(Nc1nn[nH]n1)c1ccc(CN(C(=O)c2cccc(C(F)(F)F)c2)c2ccc(C3CCCCC3)cc2)cc1 [Example 510, 4-{[(4-Cyclohexylphenyl)-(3-trifluoromethylbenzoyl)amino]methyl}-N-(2H-tetrazol-5-yl)benzamide]	1100 nM
CCS(=O)(=O)c1cccc(NC(=O)N(Cc2ccc(C(=O)Nc3nn[nH]n3)cc2)c2ccc(C(C)(C)C)cc2)c1 [Example 454, 4-[1-(4-tert-Butylphenyl)-3-(3-ethylsulfonylphenyl)ureidomethyl]-N-(2H-tetrazol-5-yl)benzamide]	214 nM
CC(C)(C)c1ccc(N(Cc2ccc(C(=O)Nc3nn[nH]n3)cc2)C(=O)Nc2ccc3c(c2)S(=O)(=O)CC3)cc1 [Example 259, 4-[1-(4-tert-Butylphenyl)-3-(1,1-dioxo-2,3-dihydro-1H-benzo[b]thiophen-6-yl)ureidomethyl]-N-(2H-tetrazol-5-yl)benzamide]	1690 nM
CC(C)(C)C1CCC(N(Cc2ccc(C(=O)Nc3nn[nH]n3)cc2)C(=O)C2=CCc3ccccc32)CC1 (stereo not drawn) [Example 546, 4-([(4-tert-Butylcyclohexyl)-(3H-indene-1-carbonyl)amino]methyl}-N-(2H-tetrazol-5-yl)benzamide]	1740 nM
CC(C)(C)C1CCC(N(Cc2ccc(C(=O)Nc3nn[nH]n3)cc2)C(=O)c2ccc(-c3ccccc3)cc2)CC1 (stereo not drawn) [Example 487, Biphenyl-4-carboxylic acid (4-tert-butylcyclohexyl)-[4-(2H-tetrazol-5-ylcarbamoyl)benzyl]amide]	523 nM
COc1ccc2nc(NC(=O)N(Cc3ccc(C(=O)Nc4nn[nH]n4)cc3)c3ccc(C4CCCCC4)cc3)sc2c1 [Example 365, 4-[1-(4-Cyclohexylphenyl)-3-(6-methoxybenzothiazol-2-yl)ureidomethyl]-N-(2H-tetrazol-5-yl)benzamide]	1430 nM
CC1CCC(N(Cc2ccc(C(=O)NCCC(=O)O)cc2)C(=O)Nc2ccc(Oc3ccccc3)cc2)CC1 (stereo not drawn) [Example 22, 3-{4-[1-(4-Methylcyclohexyl)-3-(4-phenoxyphenyl)ureidomethyl]benzoylamino}propionic acid]	1100 nM
CC(C)(C)C1CCC(N(Cc2ccc(C(=O)Nc3nn[nH]n3)cc2)C(=O)Cc2ccc(S(C)(=O)=O)cc2)CC1 (stereo not drawn) [Example 517, 4-({(4-tert-Butylcyclohexyl)-[2-(4-methylsulfonylphenyl)acetyl]amino}methyl)-N-(2H-tetrazol-5-yl)benzamide]	620 nM
CCC1CCC(N(Cc2ccc(C(=O)NCCC(=O)O)cc2)C(=O)Nc2ccc(OC(F)(F)F)cc2)CC1 (stereo not drawn) [Example 83, 3-{4-[1-(4-Ethylcyclohexyl)-3-(4-trifluoromethoxyphenyl)ureidomethyl]benzoylamino}propionic acid]	203 nM
CC1CCC(N(Cc2ccc(C(=O)NCCC(=O)O)cc2)C(=O)Nc2ccc(OC(F)(F)F)cc2)CC1 (stereo not drawn) [Example 15, 3-{4-[1-(4-Methylcyclohexyl)-3-(4-trifluoromethoxyphenyl)ureidomethyl]benzoylamino}propionic acid]	826 nM
CC(C)(C)c1ccc(N(Cc2ccc(C(=O)NCCC(=O)O)cc2)C(=O)Oc2cccc(OC(F)(F)F)c2)cc1 [Example 412, 3-(4-{[(4-tert-Butylphenyl)-(3-trifluoromethoxyphenoxycarbonyl)amino]methyl}benzoylamino)propionic acid]	604 nM
O=C(Nc1nn[nH]n1)c1ccc(CN(C(=O)Nc2ccccc2OC(F)(F)F)c2ccc(C3=CCCCC3)cc2)cc1 [Example 351, 4-[1-(4-Cyclohex-1-enylphenyl)-3-(2-trifluoromethoxyphenyl)ureidomethyl]-N-(2H-tetrazol-5-yl)benzamide]	368 nM
CCCCOC(=O)c1ccc(NC(=O)N(CCc2ccc(Cl)cc2)Cc2ccc(C(=O)NCCC(=O)O)cc2)cc1 [Example 51, 4-{3-[4-(2-Carboxyethylcarbamoyl)benzyl]-3-[2-(4-chlorophenyl)ethyl]ureido}benzoic acid butyl ester]	721 nM
CCN(CC)C(=O)c1cccc(NC(=O)N(Cc2ccc(C(=O)Nc3nn[nH]n3)cc2)c2ccc(C(C)(C)C)cc2)c1 [Example 462, N,N-Diethyl-3-{3-(4-tert-butylphenyl)-3-[4-(2H-tetrazol-5-ylcarbamoyl)benzyl]ureido}benzamide]	1160 nM
O=C(Nc1nn[nH]n1)c1ccc(CN(C(=O)Nc2cc(Cl)cc(Cl)c2)c2ccc(N3CCCCC3)cc2)cc1 [Example 316, 4-[3-(3,5-Dichlorophenyl)-1-(4-piperidin-1-ylphenyl)ureidomethyl]-N-(2H-tetrazol-5-yl)benzamide]	547 nM

Continued, values first:

IC50	SMILES
66 nM	COc1cccc2cc(C(C)NC(=O)N(Cc3ccc(C(=O)Nc4nn[nH]n4)cc3)c3ccc(C4CCCCC4)cc3)ccc12 (stereo not drawn) [Example 379, 4-{1-(4-Cyclohexylphenyl)-3-[1-(5-methoxynaphthalen-2-yl)ethyl]ureidomethyl}-N-(2H-tetrazol-5-yl)benzamide]
50 nM	O=C(Nc1nn[nH]n1)c1ccc(CN(C(=O)Nc2ccc(OC(F)(F)F)cc2)c2ccc(C3=CCCCC3)cc2)cc1 [Example 307, 4-[1-(4-Cyclohex-1-enylphenyl)-3-(4-trifluoromethoxyphenyl)ureidomethyl]-N-(2H-tetrazol-5-yl)benzamide]
55 nM	Cc1ccc(NC(=O)N(Cc2ccc(C(=O)Nc3nn[nH]n3)cc2)c2ccc(C3CCCCC3)cc2)cc1S(C)(=O)=O [Example 305, 4-[1-(4-Cyclohexylphenyl)-3-(3-methylsulfonyl-4-methylphenyl)ureidomethyl]-N-(2H-tetrazol-5-yl)benzamide]
21 nM	O=C(Nc1nn[nH]n1)c1ccc(CN(C(=O)Nc2cccc(C(F)(F)F)c2)c2ccc(C3=CCCCC3)cc2)cc1 [Example 326, 4-[1-(4-Cyclohex-1-enylphenyl)-3-(3-trifluoromethylphenyl)ureidomethyl]-N-(2H-tetrazol-5-yl)benzamide]
139 nM	CSc1ccc(NC(=O)N(Cc2ccc(C(=O)NCCC(=O)O)cc2)C2CCC(C(C)(C)C)CC2)cc1 (stereo not drawn) [Example 30, 3-{4-[1-(4-tert-Butylcyclohexyl)-3-(4-methylsulfanylphenyl)ureidomethyl]benzoyl}aminopropionic acid]
37 nM	CCC(C)(C)C1CCC(N(Cc2ccc(C(=O)NCCC(=O)O)cc2)NC(=O)c2ccc(OC(F)(F)F)cc2)CC1 (stereo not drawn) [Example 423, 3-{4-[N-[4-(1,1-Dimethylpropyl)cyclohexyl]-N′-(4-trifluoromethoxybenzoyl)hydrazinomethyl]benzoylamino}propionic acid]
87 nM	CC(=O)c1cccc(NC(=O)N(Cc2ccc(C(=O)Nc3nn[nH]n3)cc2)c2ccc(C(C)(C)C)cc2)c1 [Example 297, 4-[3-(3-Acetylphenyl)-1-(4-tert-butylphenyl)ureidomethyl]-N-(2H-tetrazol-5-yl)benzamide]
183 nM	CC1C(N(Cc2ccc(C(=O)NCCC(=O)O)cc2)C(=O)Nc2ccc(OC(F)(F)F)cc2)CC2CC1C2(C)C (stereo not drawn) [Example 65, 3-{4-[3-(4-Trifluoromethoxyphenyl)-1-(2,6,6-trimethylbicyclo[3.1.1]hept-3-yl)ureidomethyl]benzoylamino}propionic acid]
52 nM	Cn1nnc(-c2cccc(NC(=O)N(Cc3ccc(C(=O)Nc4nn[nH]n4)cc3)c3ccc(C4CCCCC4)cc3)c2)n1 [Example 371]
26 nM	COc1cc(NC(=O)N(Cc2ccc(C(=O)Nc3nn[nH]n3)cc2)C2CCC(C(C)(C)C)CC2)cc(C(F)(F)F)c1 (stereo not drawn) [Example 602, 4-[1-(4-tert-Butylcyclohexyl)-3-(3-methoxy-5-trifluoromethylphenyl)ureidomethyl]-N-(2H-tetrazol-5-yl)benzamide]

Same assay, conditions: Glu Bd Assay (III) IC50 (nM), BHK cell membranes, WGA SPA beads, 125I-glucagon

SMILES	IC50
CC(C)(C)[C@H]1CC[C@H](N(Cc2ccc(C(=O)NCCC(=O)O)cc2)C(=O)Nc2ccccc2)CC1 [Example 243, 3-{4-[1-(trans-4-tert-Butylcyclohexyl)-3-phenylureidomethyl]benzoylamino}propionic acid]	1090 nM
CC(C)(C)[C@H]1CC[C@H](N(Cc2ccc(C(=O)NCC(=O)NO)cc2)C(=O)Nc2ccc(OC(F)(F)F)cc2)CC1 [Example 377, 4-[1-(trans-4-tert-Butylcyclohexyl)-3-(4-trifluoromethoxyphenyl)ureidomethyl]-N-hydroxycarbamomethyl-benzamide]	2960 nM
